Values quoted from earlier work as cited in patent US20130203688A1, “SUGAR PLANT DERIVED BY-PRODUCTS AND METHODS OF PRODUCTION THEREOF” (FÉDÉRATION DES PRODUCTEURS ACÉRI-COLES DU QUÉBEC, priority 2010, published 2013).

Assays:
[1] = test system: human HL-60
[2] = test system: α-glucosidase
[3] = test system: tyrosinase
[4] = test system: TNFα secretion
[5] = test system: bacteria
[6] = test system: synthesis of melanin
[7] = test system: tumor

## COc1ccc(C2OC(=O)C(O)(Cc3ccc(OC4OC(C)C(O)C(O)C4O)c(OC)c3)C2CO)cc1OC (centres unmarked) [compound 7]
[1]
  Properties: human HL-60 proliferation-inhibiting action: human HL-60 proliferation- inhibiting
[2]
  Properties: α-glucosidase-inhibiting action: α- glucosidase- inhibiting

## COc1cc(C2c3c(cc(OC)c(O)c3OC)CC(CO)C2CO)cc(OC)c1O (centres unmarked) [compound 8, Lyoniresinol]
[3]
  Properties: tyrosinase inhibitory: tyrosinase inhibitory

## COc1cc(/C=C/CO)cc(OC)c1O [compound 10, Syringenin]
[4]
  Properties: TNFα-secretion inhibitor: TNFα- secretion inhibitor

## Oc1ccccc1O [compound 11, 1,2-Benzenediol(catechol)]
[3]
  Properties: tyrosinase inhibitory: inhibit the activity of tyrosinase
[5]
  Properties: antibacterial: Antibacterial
[6]
  Properties: inhibit the synthesis of melanin: inhibit the synthesis of melanin

## COc1cc(C2Oc3c(OC)cc(CCCO)cc3C2CO)ccc1O (centres unmarked) [compound 15]
[7]
  Properties: antitumor: Antitumor/
